From US9216991B2 (Ares Trading S.A., priority 2012, dated 2015) come the findings set out here.

Structures can show the parent of a compound that is named as a salt. Bounds are passed on as bounds.

For the assay, the target named is T1, IRAK4 (Homo sapiens, UniProt Q9NWZ3).
T1 construct: His (N); TEV cleavage site (N)
T1 sequence (Q9NWZ3 1-460): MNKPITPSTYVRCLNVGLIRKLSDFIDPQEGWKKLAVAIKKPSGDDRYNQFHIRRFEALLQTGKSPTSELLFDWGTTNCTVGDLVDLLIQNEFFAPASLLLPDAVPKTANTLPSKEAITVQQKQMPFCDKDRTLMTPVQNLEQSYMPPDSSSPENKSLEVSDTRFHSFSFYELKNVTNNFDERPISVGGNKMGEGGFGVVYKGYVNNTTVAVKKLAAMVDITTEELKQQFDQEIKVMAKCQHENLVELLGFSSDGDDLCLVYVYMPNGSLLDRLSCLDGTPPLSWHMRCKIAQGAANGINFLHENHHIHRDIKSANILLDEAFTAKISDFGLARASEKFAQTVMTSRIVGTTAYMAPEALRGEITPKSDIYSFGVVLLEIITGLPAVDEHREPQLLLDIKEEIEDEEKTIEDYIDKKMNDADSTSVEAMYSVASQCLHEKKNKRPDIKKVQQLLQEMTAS
The experiment in a line: IRAK4 Enzymatic Assay. It is filed as biochemical. The settings on record: His-TEV-IRAK4 20 ng/well, ATP 2 μM, STK1-biotin peptide 300 nM, 3 hours at 30° C., FlashPlate radioactivity. The procedure, abridged: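 Radiometric FlashPlate readout: biotin-STK1 substrate (300 nM) captured on streptavidin after EDTA stop and washes. Reaction used His-TEV-IRAK4 (20 ng/well), 2 μM [^33P]-spiked ATP and compound (1 nM-20 μM), incubated 3 h at 30 °C in 50 mM HEPES pH 7.0, 10 mM MgCl2, 5 mM MnCl2, 2 mM DTT.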
In the case of `CC(=O)N1CC[C@H](n2cc(-c3cnc(-c4cccc(-c5cnn(C)c5)c4)nc3)cn2)[C@@H](O)C1` [Example 225, 1-[(3S,4S)-3-Hydroxy-4-(4-{2-[3-(1-methyl-1H-pyrazol-4-yl)-phenyl]-pyrimidin-5-yl}-pyrazol-1-yl)-piperidin-1-yl]-ethanone], the IC50 was in the range of 0.1 to 1 µM.

Regarding `COCCO[C@H]1CC[C@@H](n2cc(-c3cnc(-c4cccc(-c5cnn(C)c5)c4)nc3)cn2)CC1` [Example 218, cis-5-{1-[4-(2-Methoxy-ethoxy)-cyclohexyl]-1H-pyrazol-4-yl}-2-[3-(1-methyl-1H-pyrazol-4-yl)-phenyl]-pyrimidine], the IC50 lay in the range of 0.1 to 1 µM. The figure for `CCNC(=O)[C@H]1CC[C@H](n2cc(-c3cnc(-c4cccc(-c5cnn(C)c5)c4)nc3)cn2)CC1` [Example 197, Trans-4-(4-{2-[3-(1-Methyl-1H-pyrazol-4-yl)-phenyl]-pyrimidin-5-yl}-pyrazol-1-yl)-cyclohexanecarboxylic acid ethylamide] is under 0.1 µM; for `Cn1cc(-c2cccc(-c3ncc(-c4cnn([C@H]5CC[C@H](C(=O)N6CC[C@@H](O)C6)CC5)c4)cn3)c2)cn1` [Example 186, ((R)-3-Hydroxy-pyrrolidin-1-yl)-[4-(4-{2-[3-(1-methyl-1H-pyrazol-4-yl)-phenyl]-pyrimidin-5-yl}-pyrazol-1-yl)-cyclohexyl]-methanone] it is under 0.1 µM. Then `O=C(Cn1cc(-c2cnc(-c3cccc(-c4ccncc4)c3)nc2)cn1)N1CCCC1` [Example 43, 2-{4-[2-(3-Pyridin-4-yl-phenyl)-pyrimidin-5-yl]-pyrazol-1-yl}-1-pyrrolidin-1-yl-ethanone], with 1 to 5 µM. Then `Cn1cc(-c2cccc(-c3ncc(-c4cnn(C5CCNCC5(F)F)c4)cn3)c2)cn1` (stereo not shown) [Example 259, 5-[1-(3,3-Difluoro-piperidin-4-yl)-1H-pyrazol-4-yl]-2-[3-(1-methyl-1H-pyrazol-4-yl)-phenyl]-pyrimidine], with 0.1 to 1 µM; and `CC(C)OCC(CO)n1cc(-c2cnc(-c3cccc(-c4cnn(C)c4)c3)nc2)cn1` (stereo not shown) [Example 214, 3-Isopropoxy-2-(4-{2-[3-(1-methyl-1H-pyrazol-4-yl)-phenyl]-pyrimidin-5-yl}-pyrazol-1-yl)-propan-1-ol], with 1 to 5 µM; and `Cn1cc(-c2cccc(-c3ncc(-c4cnn([C@H]5CC[C@H](NCCO)CC5)c4)cn3)c2)cn1` [Example 289, 2-trans-[4-(4-{2-[3-(1-Methyl-1H-pyrazol-4-yl)-phenyl]-pyrimidin-5-yl}-pyrazol-1-yl)-cyclohexylamino]-ethano], with under 0.1 µM. For `Cn1cc(-c2cccc(-c3ncc(-c4cnn(CC(=O)NC5CCOCC5)c4)cn3)c2)cn1` [Example 54, 2-(4-{2-[3-(1-Methyl-1H-pyrazol-4-yl)-phenyl]-pyrimidin-5-yl}-pyrazol-1-yl)-N-(tetrahydro-pyran-4-yl)-acetamide], the IC50 lay within 0.1 to 1 µM. Then `Cc1ccc(-c2cccc(-c3ncc(-c4cnn([C@H]5CC[C@H](C(=O)N(C)C)CC5)c4)cn3)c2)nn1` [Example 237, Trans-4-(4-{2-[3-(6-Methyl-pyridazin-3-yl)-phenyl]-pyrimidin-5-yl}-pyrazol-1-yl)-cyclohexanecarboxylic acid dimethylamide], with 1 to 5 µM. Then `CN(C)C(=O)C1CC(n2cc(-c3cnc(-c4cccc(-c5cnn(C)c5)c4)nc3)cn2)C1` (stereo not shown) [Example 158, 3-(4-{2-[3-(1-Methyl-1H-pyrazol-4-yl)-phenyl]-pyrimidin-5-yl}-pyrazol-1-yl)-cyclobutanecarboxylic acid dimethylamide], with 0.1 to 1 µM; and `CN1CCCC1CCn1cc(-c2cnc(-c3cccc(-c4cnn(C)c4)c3)nc2)cn1` (stereo not shown) [Example 64, 2-[3-(1-Methyl-1H-pyrazol-4-yl)-phenyl]-5-{1-[2-(1-methyl-pyrrolidin-2-yl)-ethyl]-1H-pyrazol-4-yl}-pyrimidine], with 0.1 to 1 µM; and `Cn1cc(-c2cccc(-c3ncc(-c4cnn(CC(=O)N5CCCCC5)c4)cn3)c2)cn1` [Example 25, 2-(4-{2-[3-(1-Methyl-1H-pyrazol-4-yl)-phenyl]-pyrimidin-5-yl}-pyrazol-1-yl)-1-piperidin-1-yl-ethanone], with 1 to 5 µM.

As for `Cn1cc(-c2cccc(-c3ncc(-c4cnn(Cc5ncco5)c4)cn3)c2)cn1` [Example 46, 2-[3-(1-Methyl-1H-pyrazol-4-yl)-phenyl]-5-(1-oxazol-2-ylmethyl-1H-pyrazol-4-yl)-pyrimidine], the IC50 was in the range of 1 to 5 µM. Then `COCC(C)NC(=O)[C@H]1CC[C@H](n2cc(-c3cnc(-c4cccc(-c5cnn(C)c5)c4)nc3)cn2)CC1` (stereo partly shown) [Example 178, 4-(4-{2-[3-(1-Methyl-1H-pyrazol-4-yl)-phenyl]-pyrimidin-5-yl}-pyrazol-1-yl)-cyclohexanecarboxylic acid (2-methoxy-1-methyl-ethyl)-amide], with under 0.1 µM; and `Cn1cc(-c2cccc(-c3ncc(-c4cnn(CC(=O)N5CCOC(CCO)C5)c4)cn3)c2)cn1` (stereo not shown) [Example 75, 1-[2-(2-Hydroxy-ethyl)-morpholin-4-yl]-2-(4-{2-[3-(1-methyl-1H-pyrazol-4-yl)-phenyl]-pyrimidin-5-yl}-pyrazol-1-yl)-ethanone], with 0.1 to 1 µM.

Turning to `Cc1ncccc1CCn1cc(-c2cnc(-c3cccc(-c4cnn(C)c4)c3)nc2)cn1` [Example 89, 2-[3-(1-Methyl-1H-pyrazol-4-yl)-phenyl]-5-{1-[2-(2-methyl-pyridin-3-yl)-ethyl]-1H-pyrazol-4-yl}-pyrimidine], the IC50 is 0.1 to 1 µM. In the case of `Cn1cc(-c2cccc(-c3ncc(-c4cnn(C5CCCN(S(C)(=O)=O)C5)c4)cn3)c2)cn1` (stereo in doubt) [Example 272, 5-[(R)-1-(1-Methanesulfonyl-piperidin-3-yl)-1H-pyrazol-4-yl]-2-[3-(1-methyl-1H-pyrazol-4-yl)-phenyl]-pyrimidine], the IC50 is under 0.1 µM. The figure for `Cn1cc(-c2cccc(-c3ncc(-c4cnn(CCN5CCCCC5)c4)cn3)c2)cn1` [Example 57, 2-[3-(1-Methyl-1H-pyrazol-4-yl)-phenyl]-5-[1-(2-piperidin-1-yl-ethyl)-1H-pyrazol-4-yl]-pyrimidine] is 0.1 to 1 µM.

`Cn1cc(-c2cccc(-c3ncc(-c4cnn([C@H]5CC[C@H](C(N)=O)CC5)c4)cn3)c2)cn1` [Example 206, Trans-4-(4-{2-[3-(1-Methyl-1H-pyrazol-4-yl)-phenyl]-pyrimidin-5-yl}-pyrazol-1-yl)-cyclohexanecarboxylic acid amide]: the IC50 is under 0.1 µM.

Consider `CC(=O)N[C@H]1CC[C@@H](n2cc(-c3cnc(-c4cccc(-c5cnn(C)c5)c4)nc3)cn2)CC1` [Example 161, Cis-N-[4-(4-{2-[3-(1-Methyl-1H-pyrazol-4-yl)-phenyl]-pyrimidin-5-yl}-pyrazol-1-yl)-cyclohexyl]-acetamide], for which the IC50 was under 0.1 µM. Then `Cn1cc(-c2cccc(-c3ncc(-c4cnn([C@H]5CC[C@@H](N6CCOCC6)CC5)c4)cn3)c2)cn1` [Example 209, cis-4-[4-(4-{2-[3-(1-Methyl-1H-pyrazol-4-yl)-phenyl]-pyrimidin-5-yl}-pyrazol-1-yl)-cyclohexyl]-morpholine], with 1 to 5 µM. Then `Nc1cc(-c2cccc(-c3ncc(-c4cnn(C5CCOCC5)c4)cn3)c2)ccn1` [Example 136, 4-(3-{5-[1-(Tetrahydro-pyran-4-yl)-1H-pyrazol-4-yl]-pyrimidin-2-yl}-phenyl)-pyridin-2-ylamine], with 0.1 to 1 µM. In the case of `CC(C)[C@H](CO)NC(=O)[C@H]1CC[C@H](n2cc(-c3cnc(-c4cccc(-c5cnn(C)c5)c4)nc3)cn2)CC1` [Example 163, Trans-4-(4-{2-[3-(1-Methyl-1H-pyrazol-4-yl)-phenyl]-pyrimidin-5-yl}-pyrazol-1-yl)-cyclohexanecarboxylic acid ((R)-1-hydroxymethyl-2-methyl-propyl)-amide], the IC50 was in the range of 0.1 to 1 µM. With `Cn1cc(-c2cccc(-c3ncc(-c4cnn([C@H]5CC[C@H](N6CCOCC6)CC5)c4)cn3)c2)cn1` [Example 208, Trans-4-[4-(4-{2-[3-(1-Methyl-1H-pyrazol-4-yl)-phenyl]-pyrimidin-5-yl}-pyrazol-1-yl)-cyclohexyl]-morpholine], the half-maximal inhibitory concentration (IC50) was under 0.1 µM. Then `O=C(Cn1cc(-c2cccc(-c3ncc(-c4cnn(C5CCNCC5)c4)cn3)c2)cn1)N1CCCC1` [Example 17, 2-(4-{3-[5-(1-Piperidin-4-yl-1H-pyrazol-4-yl)-pyrimidin-2-yl]-phenyl}-pyrazol-1-yl)-1-pyrrolidin-1-yl-ethanone hydrochloride], with 1 to 5 µM. In the case of `C[C@H]1C[C@@H](n2cc(-c3cnc(-c4cccc(-c5cnn(C)c5)c4)nc3)cn2)CCN1` [Example 246, 5-[1-((2S,4S)-2-Methyl-piperidin-4-yl)-1H-pyrazol-4-yl]-2-[3-(1-methyl-1H-pyrazol-4-yl)-phenyl]-pyrimidine], the IC50 is under 0.1 µM. The figure for `CC(C)CNC(=O)[C@H]1CC[C@H](n2cc(-c3cnc(-c4cccc(-c5cnn(C)c5)c4)nc3)cn2)CC1` [Example 173, Trans-4-(4-{2-[3-(1-Methyl-1H-pyrazol-4-yl)-phenyl]-pyrimidin-5-yl}-pyrazol-1-yl)-cyclohexanecarboxylic acid isobutyl-amide] is under 0.1 µM.

One may read the IC50 as the concentration at which inhibition is half-maximal.
